Laboratory results: DBAASP
Values after ≈ are worked out from the molar mass of the structure shown.

Columns and labels:
Assay in all cases: ≥ marks a high value that may be exact or a test limit, other limits are often not marked, values filed in µg/mL are converted to µM
[1] = system: Acinetobacter baumannii ATCC 19606
Acinetobacter junii RT-4 = system: Acinetobacter junii RT-4
Bacillus megaterium Bm11 = system: Bacillus megaterium Bm11
[2] = system: Candida albicans ATCC 10231
[3] = system: Enterococcus faecalis ATCC 29212
[4] = system: Escherichia coli ATCC 25922
Escherichia coli D21 = system: Escherichia coli D21
[5] = system: Pseudomonas aeruginosa ATCC 15692
[6] = system: Pseudomonas aeruginosa ATCC 27853
[7] = system: Pseudomonas syringae pv. tabaci 1918NCPPB
Saccharomyces cerevisiae = system: Saccharomyces cerevisiae
[8] = system: Schizosaccharomyces pombe
[9] = system: Staphylococcus aureus ATCC 25923
[10] = system: Staphylococcus aureus Cowan 1
Staphylococcus capitis 1 = system: Staphylococcus capitis 1
[11] = system: Staphylococcus epidermidis ATCC 12228
[12] = system: Streptococcus pyogenes ATCC 21547
[13] = system: Yersinia pseudotuberculosis YPIII
[14] = system: Acinetobacter sp. DSM 586
[15] = system: Arthrobacter globiformis VKM Ac-1112
[16] = system: Bacillus subtilis VKM B-501
[17] = system: Bacillus subtilis subsp. spizizenii DSM 347
[18] = system: Escherichia coli DH5alpha
[19] = system: Escherichia coli DSM 1116
Escherichia coli MH1 = system: Escherichia coli MH1
[20] = system: Pseudomonas aeruginosa PAO1
[21] = system: Saccharomyces cerevisiae Y190
[22] = system: Staphylococcus xylosus DSM 20267
[23] = system: Aspergillus flavus KCTC 1375
[24] = system: Candida albicans ATCC 90028
[25] = system: Enterococcus faecium ATCC 19434
Enterococcus faecium = system: Enterococcus faecium
[26] = system: Escherichia coli O157:H7 ATCC 43895
Escherichia coli = system: Escherichia coli
[27] = system: Malassezia furfur KCTC 7744
Pseudomonas aeruginosa = system: Pseudomonas aeruginosa
Staphylococcus aureus = system: Staphylococcus aureus
[28] = system: Bacillus subtilis ATCC 62037
[29] = system: Cryptococcus neoformans ATCC 34881
[30] = system: Escherichia coli ATCC 27325
[31] = system: Pseudomonas putida ATCC 17426
[32] = system: Saccharomyces cerevisiae ATCC 44774
[33] = system: Salmonella enterica subsp. enterica serovar Enteritidis ATCC 13076
[34] = system: Staphylococcus aureus ATCC 15752
[35] = system: Streptococcus mutans ATCC 25175

An MIC [1] of 6 µM (≈ 9.65 µg/mL), an MIC (Acinetobacter junii RT-4) of 6 µM (≈ 9.65 µg/mL) and an MIC (Bacillus megaterium Bm11) of 1.5 µM (≈ 2.41 µg/mL) were found for `CC[C@H](C)[C@H](NC(=O)[C@H](CCCN=C(N)N)NC(=O)CNC(=O)[C@H](CC(C)C)NC(=O)[C@H](Cc1ccccc1)NC(=O)[C@H](CCCCN)NC(=O)[C@H](CO)NC(=O)[C@H](Cc1ccccc1)NC(=O)[C@H](Cc1c[nH]c2ccccc12)NC(=O)[C@@H]1CCCN1C(=O)[C@@H](NC(=O)[C@@H](N)Cc1ccccc1)C(C)C)C(=O)N[C@@H](CC(C)C)C(N)=O` [FVPWFSKFLGRIL] in this work. It also gave an MIC [2] of 6 µM (≈ 9.65 µg/mL), an MIC [3] of 6 µM (≈ 9.65 µg/mL) and an MIC [4] of 24 µM (≈ 38.6 µg/mL). It also gave an MIC (Escherichia coli D21) of 12 µM (≈ 19.3 µg/mL), an MIC [5] of 24 µM (≈ 38.6 µg/mL) and an MIC [6] of over 48 µM. It also gave an MIC [7] of 6 µM (≈ 9.65 µg/mL), an MIC (Saccharomyces cerevisiae) of 6 µM (≈ 9.65 µg/mL) and an MIC [8] of 3 µM (≈ 4.83 µg/mL). For the same compound, the MIC [9] was 3 µM (≈ 4.83 µg/mL), the MIC [10] was 1.5 µM (≈ 2.41 µg/mL) and the MIC (Staphylococcus capitis 1) was 1.5 µM (≈ 2.41 µg/mL). For the same compound, the MIC [11] was 1.5 µM (≈ 2.41 µg/mL), the MIC [12] was 6 µM (≈ 9.65 µg/mL) and the MIC [13] was 3 µM (≈ 4.83 µg/mL).

An MIC [14] of 2.76 µM (≈ 8 µg/mL), an MIC [15] of 0.3 µM (≈ 0.871 µg/mL) and an MIC [16] of 1.1 µM (≈ 3.19 µg/mL) were found for `CC[C@H](C)[C@H](NC(=O)[C@H](Cc1ccc(O)cc1)NC(=O)[C@H](CCC(N)=O)NC(=O)[C@H](CCCCN)NC(=O)[C@H](CC(C)C)NC(=O)[C@H](CCCCN)NC(=O)[C@H](CCC(=O)O)NC(=O)CNC(=O)[C@H](CCSC)NC(=O)[C@H](CO)NC(=O)[C@H](CCCCN)NC(=O)[C@H](Cc1ccccc1)NC(=O)[C@H](CCCCN)NC(=O)[C@H](CC(=O)O)NC(=O)[C@H](CCCCN)NC(=O)[C@H](CC(C)C)NC(=O)CN)C(=O)N[C@@H](CCC(N)=O)C(=O)N[C@H](C(=O)N[C@@H](Cc1c[nH]c2ccccc12)C(=O)N[C@@H](CCCCN)C(=O)N[C@@H](C)C(=O)N[C@@H](CCCCN)C(=O)N[C@@H](Cc1ccccc1)C(N)=O)[C@@H](C)O` [GLKDKFKSMGEKLKQYIQTWKAKF] in this work. The MIC [17] was 2.76 µM (≈ 8 µg/mL), the MIC [18] was 4.5 µM (≈ 13.1 µg/mL) and the MIC [19] was 11 µM (≈ 32 µg/mL). For the same compound, the MIC (Escherichia coli MH1) was 3.2 µM (≈ 9.29 µg/mL), the MIC [20] was over 35 µM and the MIC [21] was 18 µM (≈ 52.2 µg/mL). The MIC [22] was 1.38 µM (≈ 4 µg/mL).

An MIC [23] of 10 µM (≈ 23 µg/mL), an MIC [24] of 10 µM (≈ 23 µg/mL) and an MIC [25] of 10 µM (≈ 23 µg/mL) were found for `CC(C)C[C@H](NC(=O)[C@H](C)NC(=O)[C@H](C)NC(=O)[C@H](CCCCN)NC(=O)CNC(=O)[C@@H](NC(=O)[C@H](Cc1cnc[nH]1)NC(=O)[C@H](CCCCN)NC(=O)CNC(=O)[C@@H](NC(=O)[C@H](Cc1cnc[nH]1)NC(=O)[C@H](C)NC(=O)[C@H](C)NC(=O)[C@H](CCCCN)NC(=O)[C@H](CCCCN)NC(=O)[C@H](Cc1ccccc1)NC(=O)[C@H](Cc1ccccc1)NC(=O)[C@H](CO)NC(=O)CNC(=O)[C@H](Cc1c[nH]c2ccccc12)NC(=O)CN)C(C)C)C(C)C)C(=O)N[C@H](C(N)=O)[C@@H](C)O` [GWGSFFKKAAHVGKHVGKAALT] in this work. It also gave an MIC (Enterococcus faecium) of 7.07 µM (≈ 16.2 µg/mL), an MIC [26] of 7.07 µM (≈ 16.2 µg/mL) and an MIC (Escherichia coli) of 7.07 µM (≈ 16.2 µg/mL). For the same compound, the MIC [27] was 10 µM (≈ 23 µg/mL), the MIC [6] was 7.07 µM (≈ 16.2 µg/mL) and the MIC (Pseudomonas aeruginosa) was 10 µM (≈ 23 µg/mL). The MIC [9] was 10 µM (≈ 23 µg/mL) and the MIC (Staphylococcus aureus) was 7.07 µM (≈ 16.2 µg/mL).

An MIC [28] of 0.535 µM (≈ 1.41 µg/mL), an MIC [2] of 0.379 µM (≈ 1 µg/mL) and an MIC [29] of 0.379 µM (≈ 1 µg/mL) were found for `CC[C@H](C)[C@H](NC(=O)[C@@H]1CCCN1C(=O)[C@H](Cc1c[nH]c2ccccc12)NC(=O)[C@H](CCC(N)=O)NC(=O)[C@H](CCCN=C(N)N)NC(=O)[C@@H](NC(=O)[C@@H](NC(=O)[C@@H](N)CCCN=C(N)N)C(C)C)C(C)C)C(=O)NCC(=O)N[C@@H](CCCN=C(N)N)C(=O)N[C@H](C(=O)N[C@H](C(=O)N[C@@H](CCCN=C(N)N)C(=O)N[C@@H](CCCN=C(N)N)C(=O)N[C@H](C(=O)N[C@H](C(=O)N[C@@H](CCCN=C(N)N)C(=O)N[C@@H](CCCN=C(N)N)C(=O)N[C@H](C(=O)N[C@H](C(=O)N[C@@H](CCCN=C(N)N)C(=O)O)C(C)C)C(C)C)C(C)C)C(C)C)C(C)C)C(C)C` [RVVRQWPIGRVVRRVVRRVVR] in this work. The MIC [30] was 0.268 µM (≈ 0.707 µg/mL), the MIC [31] was 0.379 µM (≈ 1 µg/mL) and the MIC [32] was 0.268 µM (≈ 0.707 µg/mL). It also gave an MIC [33] of 0.535 µM (≈ 1.41 µg/mL), an MIC [34] of 0.535 µM (≈ 1.41 µg/mL) and an MIC [35] of 0.535 µM (≈ 1.41 µg/mL).
